Two substances from patent US9028797B2, “Composite body for antigen or drug delivery” (priority 2010, dated 2015) can be followed below.

In test [1] the test system is dendritic cell line, DC2.4 cell. Briefly: Cellular uptake of fluorescently labeled BSA, fluorescence microscopy (Example 3). The class given is cell-based. The conditions noted are these: incubated 2 hr, imaged 22 hr later. Here is the method: As a model protein, bovine serum albumin (BSA) was fluorescently labeled with rhodamine B isothiocyanate and used. A BSA/BAC/γ-PGA complex prepared using benzalkonium chloride (BAC) and γ-PGA with BSA or BSA was added to a dendritic cell line, DC2.4 cell, and the mixture was incubated for 2 hr. The cells were washed and fluorescence images of the cell were measured by a fluorescence microscope 22 hr later.

For test [2], the system named is OVA-expressing cancer cell (EG7). Briefly: Tumor growth of intradermally transplanted OVA-expressing cancer cell after immunization (Example 14). The settings on record: EG7 intradermally transplanted 2 weeks after final immunization. The class given is in vivo, mice. Here is the method: OVA/BK/γ-PGA complex was constructed using ovalbumin (OVA), benzalkonium chloride (BK) and γ-PGA. To the mice were administered OVA alone, benzalkonium chloride and γ-PGA (vector alone), and OVA/BK/γ-PGA complex every other week, 4 times in total. After 2 weeks from the final immunization, OVA-expressing cancer cell (EG7) was intradermally transplanted, and the tumor growth after transplantation was observed.

The next test relates to OVA. Briefly: Antibody titer to OVA by ELISA in serum of immunized mice (Example 13). The class given is in vivo. The settings on record: mouse serum 2 weeks after final immunization; every other week, 4 times. Here is the method:
OVA/BK/γ-PGA complex was constructed using ovalbumin (OVA), benzalkonium chloride (BK) and γ-PGA. OVA alone, benzalkonium chloride and γ-PGA (vector alone), and OVA/BK/γ-PGA complex were administered to mice every other week, 4 times in total for immunization. After 2 weeks from the final immunization, the serum was collected, and the antibody titer to OVA was measured by ELISA. For the measurement of the antibody titer, an HRP-labeled goat-derived anti-mouse IgG antibody was used as the secondary antibody.
In general terms: An ELISA detects its analyte on a solid surface through an enzyme-linked reagent.

Regarding bovine serum albumin [BSA], in test [1], the “cellular uptake by dendritic cell (fluorescence of BSA)” value is recorded as “not observed”.

As to ovalbumin [ovalbumin antigen alone], the “tumor growth suppressive effect” value in test [2] is recorded as “did not show a tumor growth suppressive effect”. Moreover, the “antibody titer to OVA (immunity induction effect)” value in the test with OVA was “did not show an immunity induction effect”.
